Results: article PMC11200585, “Prospects for Prostate Cancer Chemotherapy: Cytotoxic Evaluation and Mechanistic Insights of Quinolinequinones with ADME/PK Profile” (Biomedicines, 2024)

How the values were obtained:
Format in all cases: cell-based, human
HOP-62 [1] = experiment: NCI-60 five-dose assay (non-small cell lung cancer); details: 48 h, SRB
PC-3 = experiment: NCI-60 five-dose assay (prostate cancer); details: 48 h, SRB
T-47D [2] = experiment: NCI-60 five-dose assay (breast cancer); details: 48 h, SRB
KM12 = experiment: NCI-60 five-dose assay (colon cancer); details: 48 h, SRB
OVCAR-4 = experiment: NCI-60 five-dose assay (ovarian cancer); details: 48 h, SRB
MOLT-4 [3] = experiment: NCI-60 one-dose screen (leukemia); details: 10 µM single dose, 48 h
HL-60(TB) [4] = experiment: NCI-60 one-dose screen (leukemia); details: 10 µM single dose, 48 h
SW-620 = experiment: NCI-60 five-dose assay (colon cancer); details: 48 h, SRB
MDA-MB-468 = experiment: NCI-60 one-dose screen (breast cancer); details: 10 µM single dose, 48 h
Method: (§1) The obtained quinolinequinones were submitted to NCI, Bethesda, USA, and, as per standard protocol of NCI, all compounds were evaluated for their antiproliferative activity at single-dose assay (10 µM concentration in DMSO) on a panel of 60 cancer cell lines derived from leukemia, non-small-cell lung, colon, CNS, melanoma, ovarian, renal, prostate, and breast, as per protocol. Tested compounds were added to the microtiter culture plates followed by incubation for 48 h at 37 °C. Sulforhodamine B (SRB), a protein-binding dye, is used for endpoint determination. The percent of the growth of the treated cells was determined in comparison to the untreated control cells and the results of each tested compound were reported. Data from one-dose experiments pertain to the percentage growth at 10 μM [16, 17, 18].

T-47D [5] = experiment: NCI-60 one-dose screen (breast cancer); details: 10 µM single dose, 48 h
Method: as §1

HS 578T = experiment: NCI-60 one-dose screen (breast cancer); details: 10 µM single dose, 48 h
Method: as §1

OVCAR-5 = experiment: NCI-60 five-dose assay (ovarian cancer); details: 48 h, SRB
CAKI-1 = experiment: NCI-60 five-dose assay (renal cancer); details: 48 h, SRB
BT-549 = experiment: NCI-60 five-dose assay (breast cancer); details: 48 h, SRB
SK-OV-3 = experiment: NCI-60 five-dose assay (ovarian cancer); details: 48 h, SRB
MOLT-4 [6] = experiment: NCI-60 five-dose assay (leukemia); details: 48 h, SRB
MCF7 = experiment: NCI-60 five-dose assay (breast cancer); details: 48 h, SRB
SK-MEL-28 = experiment: NCI-60 five-dose assay (melanoma); details: 48 h, SRB
A498 = experiment: NCI-60 five-dose assay (renal cancer); details: 48 h, SRB
LOX IMVI = experiment: NCI-60 five-dose assay (melanoma); details: 48 h, SRB
HT29 = experiment: NCI-60 five-dose assay (colon cancer); details: SRB
HCC-2998 = experiment: NCI-60 five-dose assay (colon cancer); details: 48 h, SRB
NCI-H322M = experiment: NCI-60 one-dose screen (non-small cell lung cancer); details: 10 µM single dose, 48 h
Method: as §1

NCI-H226 = experiment: as above; details: 10 µM single dose, 48 h
Method: as §1

NCI-H23 = experiment: as above; details: 10 µM single dose, 48 h
Method: as §1

EKVX [7] = experiment: as above; details: 10 µM single dose, 48 h
Method: as §1

HOP-62 [8] = experiment: as above; details: 10 µM single dose, 48 h
Method: as §1

NCI-H460 = experiment: as above; details: 10 µM single dose
Method: as §1

HOP-92 = experiment: as above; details: 10 µM single dose, 48 h
Method: as §1

NCI-H522 = experiment: as above; details: 10 µM single dose, 48 h
Method: as §1

A549/ATCC = experiment: as above; details: 10 µM single dose, 48 h
Method: as §1

HCT-116 = experiment: NCI-60 five-dose assay (colon cancer); details: 48 h, SRB
CCRF-CEM = experiment: NCI-60 five-dose assay (leukemia); details: 48 h, SRB
HL-60(TB) [9] = experiment: NCI-60 five-dose assay (leukemia); details: 48 h, SRB
EKVX [10] = experiment: NCI-60 five-dose assay (non-small cell lung cancer); details: 48 h, SRB
MDA-MB-231/ATCC = experiment: NCI-60 five-dose assay (breast cancer); details: 48 h, SRB
[11] = Homo sapiens, read-out: LC50 (the source's name)

CCOc1ccc(NC2=C(Cl)C(=O)c3nc(C)ccc3C2=O)cc1 [AQQ3]
TGI (HOP-62 [1]): 3.23 µM
GI50 (HOP-62 [1]; Homo sapiens): 1.74 µM
LC50 (concentration killing 50% of cells) (HOP-62 [1]; Homo sapiens): 6.01 µM
TGI (PC-3): 2.77 µM
GI50 (PC-3; Homo sapiens): 1.29 µM
CC50 (PC-3; [11]): 5.93 µM
TGI (T-47D [2]): 3.91 µM
GI50 (T-47D [2]; Homo sapiens, T47D): 1.01 µM
CC50 (T-47D [2]; Homo sapiens, T47D, read-out: LC50 (the source's name)): > 100 µM
TGI (KM12): 3.07 µM
GI50 (KM12; Homo sapiens): 1.44 µM
CC50 (KM12; [11]): 6.51 µM
TGI (OVCAR-4): 2.37 µM
GI50 (OVCAR-4; Homo sapiens): 1.13 µM
LC50 (concentration killing 50% of cells) (OVCAR-4; Homo sapiens): 4.97 µM
GP (growth percentage) (MOLT-4 [3]): −46.73%
GP (growth percentage) (HL-60(TB) [4]): −46.39%
TGI (SW-620): 3.51 µM
GI50 (SW-620; Homo sapiens): 1.83 µM
LC50 (SW-620; Homo sapiens): 6.73 µM
GP (growth percentage) (MDA-MB-468): −95.15%
GP (growth percentage) (T-47D [5]): −43.85%
GP (growth percentage) (HS 578T): 48.97%
TGI (OVCAR-5): 3.46 µM
GI50 (OVCAR-5; Homo sapiens): 1.92 µM
LC50 (lethal concentration 50%) (OVCAR-5; Homo sapiens): 6.25 µM
TGI (CAKI-1): 2.97 µM
GI50 (CAKI-1; Homo sapiens): 1.6 µM
LC50 (lethal concentration, 50% net cell kill) (CAKI-1; Homo sapiens): 5.51 µM
TGI (BT-549): 2.80 µM
GI50 (BT-549; Homo sapiens): 1.43 µM
LC50 (concentration giving 50% net cell kill) (BT-549; Homo sapiens): 5.49 µM
TGI (SK-OV-3): 30.1 µM
GI50 (SK-OV-3; Homo sapiens): 11 µM
LC50 (50% net cell kill) (SK-OV-3; Homo sapiens): 82.3 µM
TGI (MOLT-4 [6]): >100 µM
GI50 (MOLT-4 [6]; Homo sapiens): 2.49 µM
LC50 (MOLT-4 [6]; Homo sapiens): > 100 µM
TGI (MCF7): 3.82 µM
GI50 (MCF7; Homo sapiens): 1.54 µM
LC50 (MCF7; Homo sapiens): 9.44 µM
TGI (SK-MEL-28): 3.14 µM
GI50 (SK-MEL-28; Homo sapiens): 1.73 µM
LC50 (SK-MEL-28; Homo sapiens): 5.7 µM
TGI (A498): 5.52 µM
GI50 (A498; Homo sapiens): 1.56 µM
LC50 (A498; Homo sapiens): 24.4 µM
TGI (LOX IMVI): 2.33 µM
GI50 (LOX IMVI; Homo sapiens): 1.06 µM
LC50 (concentration killing 50% of cells) (LOX IMVI; Homo sapiens): 5.14 µM
TGI (HT29; 48 h): 7.08 µM
GI50 (HT29; Homo sapiens, HT-29, 48 h): 2.87 µM
LC50 (concentration killing 50% of cells) (HT29; Homo sapiens, HT-29, 48 h): 62.5 µM
TGI (HCC-2998): 3.25 µM
GI50 (HCC-2998; Homo sapiens): 1.76 µM
LC50 (concentration killing 50% of cells) (HCC-2998; Homo sapiens): 6 µM
GP (growth percentage) (NCI-H322M): 32.37%
GP (growth percentage) (NCI-H226): −52.55%
GP (growth percentage) (NCI-H23): −61.00%
GP (growth percentage) (EKVX [7]): −97.48%
GP (growth percentage) (HOP-62 [8]): 72.15%
GP (growth percentage) (NCI-H460; 48 h): 13.41%
inhibition at 10 µM (NCI-H460; Homo sapiens): 86.6%
GP (growth percentage) (HOP-92): −86.99%
GP (growth percentage) (NCI-H522): −61.57%
GP (growth percentage) (A549/ATCC): 46.18%
TGI (HCT-116): 2.79 µM
GI50 (HCT-116; Homo sapiens): 1.32 µM
LC50 (HCT-116; Homo sapiens): 5.92 µM
TGI (CCRF-CEM): >100 µM
GI50 (CCRF-CEM; Homo sapiens): 2.11 µM
LC50 (concentration killing 50% of cells) (CCRF-CEM; Homo sapiens): > 100 µM
TGI (HL-60(TB) [9]): 4.18 µM
GI50 (HL-60(TB) [9]; Homo sapiens): 1.47 µM
CC50 (HL-60(TB) [9]; [11]): > 100 µM
TGI (EKVX [10]): 3.12 µM
GI50 (EKVX [10]; Homo sapiens): 1.61 µM
CC50 (EKVX [10]; [11]): 6.05 µM
TGI (MDA-MB-231/ATCC): 2.50 µM
GI50 (MDA-MB-231/ATCC; Homo sapiens): 1.17 µM
LC50 (concentration killing 50% of cells) (MDA-MB-231/ATCC; Homo sapiens): 5.34 µM
